Here are results for 28 compounds from patent publication US9156796B2, “Benzoimidazole-carboxylic acid amide derivatives as APJ receptor modulators” (SANOFI, priority 2013, dated 2015).

Each structure is given as a SMILES string. pEC50: −log10 of the molar value. Read-outs that look alike come from different tables or passages of the source.

For the assay, the target named is T1, human apelin receptor (Homo sapiens, UniProt P35414).
T1 construct: expressed in transfected cells
T1 sequence (P35414 1-380): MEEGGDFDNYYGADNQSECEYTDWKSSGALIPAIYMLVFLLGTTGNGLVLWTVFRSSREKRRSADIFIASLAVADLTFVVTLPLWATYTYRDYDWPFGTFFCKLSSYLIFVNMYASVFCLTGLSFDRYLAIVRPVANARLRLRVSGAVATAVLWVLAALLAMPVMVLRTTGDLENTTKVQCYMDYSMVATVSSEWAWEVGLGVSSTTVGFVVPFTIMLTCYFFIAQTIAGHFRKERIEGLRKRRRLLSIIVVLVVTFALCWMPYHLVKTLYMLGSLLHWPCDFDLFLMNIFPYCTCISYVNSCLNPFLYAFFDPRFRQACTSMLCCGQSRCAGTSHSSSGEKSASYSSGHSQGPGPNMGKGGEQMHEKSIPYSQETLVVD
In words: Determination of agonism on the human apelin receptor by a calcium fluorescence assay (FLIPR). The format is cell-based. To be noted: HEK293 cells stably transfected with human apelin receptor and Giaq protein, Fluo-4 calcium fluorescence. The gist of the method: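 HEK293 cells stably co-expressing human apelin receptor and promiscuous Giaq, loaded 1 h at 37 °C with Fluo-4 (4 μM) in probenecid-containing Hepes buffer, pH 7.4. Compounds, at least 7 concentrations in triplicate, added in FLIPR Tetra; peak calcium fluorescence normalized to 1 μM apelin-13 as 100% to derive EC50.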

Take `CCC(CC)n1c(Cc2cccs2)nc2cc(C(=O)NC(CO)C(C)C)ccc21` (stereo not shown) [Example 189, 1-(1-Ethyl-propyl)-2-thiophen-2-ylmethyl-1H-benzoimidazole-5-carboxylic acid (1-hydroxymethyl-2-methyl-propyl)-amide]: the pEC50 (EC50 (APJ agonism)) is 4.91.

As to `CCC(CC)n1c(Cc2cccs2)nc2cc(C(=O)N[C@@H](CC(C)C)C(=O)NCCCOC(C)C)ccc21` [Example 358, 1-(1-Ethyl-propyl)-2-thiophen-2-ylmethyl-1H-benzoimidazole-5-carboxylic acid [(S)-1-(3-isopropoxy-propylcarbamoyl)-3-methyl-butyl]-amide], the pEC50 (read-out: EC50 (APJ agonism)) is 5.59.

In the case of `CCC(CC)n1c(Cc2cccs2)nc2cc(C(=O)N[C@@H](CC(C)C)C(=O)NC3C[C@H]4CC[C@@H](C3)N4C)ccc21` (stereo partly drawn) [Example 273, 1-(1-Ethyl-propyl)-2-thiophen-2-ylmethyl-1H-benzoimidazole-5-carboxylic acid [(S)-3-methyl-1-((1R,5S)-8-methyl-8-aza-bicyclo[3.2.1]oct-3-ylcarbamoyl)-butyl]-amide], under “read-out: EC50 (APJ agonism)”, the pEC50 is 6.67.

Consider `CCC(CC)n1c(Cc2cccs2)nc2cc(C(=O)N[C@@H](Cc3ccccc3)C(=O)O)ccc21` [Example 124, (S)-2-{[1-(1-Ethyl-propyl)-2-thiophen-2-ylmethyl-1H-benzoimidazole-5-carbonyl]-amino}-3-phenyl-propionic acid], for which the negative logarithm of the EC50 (pEC50) (read-out: EC50 (APJ agonism)) was 5.03.

For the compound `CCCN1CCC(NC(=O)[C@H](CC(C)C)NC(=O)c2ccc3c(c2)nc(Cc2cccs2)n3C(CC)CC)CC1` [Example 285, 1-(1-Ethyl-propyl)-2-thiophen-2-ylmethyl-1H-benzoimidazole-5-carboxylic acid [(S)-3-methyl-1-(1-propyl-piperidin-4-ylcarbamoyl)-butyl]-amide], the pEC50 (read-out: EC50 (APJ agonism)) was 6.53.

Take `CCC(CC)n1c(Cc2cccs2)nc2cc(C(=O)NC(CC(C)C)C(C)(C)C(=O)O)ccc21` (single isomer, unassigned) [Example 464]: the negative logarithm of the EC50 (pEC50) (read-out: EC50 (APJ agonism)) was 6.90.

As to `C[C@@H]1CCCC[C@H]1n1c(Cc2cccs2)nc2cc(C(=O)N[C@@H](CC3CCCCC3)[C@H](O)CC(=O)O)ccc21` [Example 74, (3R,4S)-5-Cyclohexyl-3-hydroxy-4-{[1-((1R,2R)-2-methyl-cyclohexyl)-2-thiophen-2-ylmethyl-1H-benzoimidazole-5-carbonyl]-amino}-pentanoic acid], the pEC50 (read-out: EC50 (APJ agonism)) is 6.85.

For the compound `CC(C)C[C@@H](CC(=O)O)NC(=O)c1ccc2c(c1)nc(Cc1ccco1)n2C1CCCCC1C` (stereo partly drawn) [Example 99, (S)-3-{[2-Furan-2-ylmethyl-1-(2-methyl-cyclohexyl)-1H-benzoimidazole-5-carbonyl]-amino}-5-methyl-hexanoic acid], the pEC50 (read-out: EC50 (APJ agonism)) is 7.34.

Regarding `CC(C)C[C@H](NC(=O)c1ccc2c(c1)nc(Cc1cccs1)n2C1CCCCC1)C(N)=O` [Example 168, 1-Cyclohexyl-2-thiophen-2-ylmethyl-1H-benzoimidazole-5-carboxylic acid ((S)-1-carbamoyl-3-methyl-butyl)-amide], the pEC50 (read-out: EC50 (APJ agonism)) was 5.34.

As to `C[C@@H]1CCCC[C@H]1n1c(Cc2cccs2)nc2cc(C(=O)NC(CC3CCCC3)C(=O)O)ccc21` (single isomer, unassigned) [Example 442], under “read-out: EC50 (APJ agonism)”, the negative logarithm of the EC50 (pEC50) was 6.87.

As for `CCC(CC)n1c(Cc2cccs2)nc2cc(C(=O)N[C@@H](CC(C)C)C(=O)NC(C)CN(C)C)ccc21` (stereo partly drawn) [Example 243, 1-(1-Ethyl-propyl)-2-thiophen-2-ylmethyl-1H-benzoimidazole-5-carboxylic acid [(S)-1-(2-dimethylamino-1-methyl-ethylcarbamoyl)-3-methyl-butyl]-amide], for the setting “read-out: EC50 (APJ agonism)”, the pEC50 is 6.11.

Turning to `CCC(CC)n1c(Cc2cccs2)nc2cc(C(=O)NC(CC(=O)O)CC3CCCCC3)ccc21` (single isomer, unassigned) [Example 455], the negative-log EC50 (pEC50) (read-out: EC50 (APJ agonism)) is 6.80.

As for `CCCC(C)(NC(=O)c1ccc2c(c1)nc(Cc1cccs1)n2C(CC)CC)C(=O)O` (stereo not shown) [Example 25, 2-{[1-(1-Ethyl-propyl)-2-thiophen-2-ylmethyl-1H-benzoimidazole-5-carbonyl]-amino}-2-methyl-pentanoic acid], where the note is “read-out: EC50 (APJ agonism)”, the negative-log EC50 (pEC50) is 5.32.

As for `CCC(CC)n1c(Cc2cccs2)nc2cc(C(=O)N[C@@H](CC(C)C)C(=O)N3CCC[C@H]3COC)ccc21` [Example 384, 1-(1-Ethyl-propyl)-2-thiophen-2-ylmethyl-1H-benzoimidazole-5-carboxylic acid [(S)-1-((S)-2-methoxymethyl-pyrrolidine-1-carbonyl)-3-methyl-butyl]-amide], the pEC50 (read-out: EC50 (APJ agonism)) was 5.79.

Regarding `CCC(CC)n1c(Cc2cccs2)nc2cc(C(=O)N[C@@H](CC(C)C)C(=O)NCc3ccco3)ccc21` [Example 221, 1-(1-Ethyl-propyl)-2-thiophen-2-ylmethyl-1H-benzoimidazole-5-carboxylic acid {(S)-1-[(furan-2-ylmethyl)-carbamoyl]-3-methyl-butyl}-amide], the pEC50 (read-out: EC50 (APJ agonism)) is 5.74.

For the compound `CCC(CC)n1c(Cc2ccccc2)nc2cc(C(=O)N[C@@H](CC(C)C)C(=O)O)ccc21` [Example 116, (S)-2-{[2-Benzyl-1-(1-ethyl-propyl)-1H-benzoimidazole-5-carbonyl]-amino}-4-methyl-pentanoic acid], the pEC50 (read-out: EC50 (APJ agonism)) is 5.17.

Consider `CCCC(CO)NC(=O)c1ccc2c(c1)nc(Cc1cccs1)n2C(CC)CC` (stereo not shown) [Example 196, 1-(1-Ethyl-propyl)-2-thiophen-2-ylmethyl-1H-benzoimidazole-5-carboxylic acid (1-hydroxymethyl-butyl)-amide], for which the negative-log EC50 (pEC50) (read-out: EC50 (APJ agonism)) was 6.04.

Consider `CCc1ccc(CC(NC(=O)c2ccc3c(c2)nc(Cc2cccs2)n3C(CC)CC)C(=O)O)cc1` (stereo not shown) [Example 30, 3-(4-Ethyl-phenyl)-2-{[1-(1-ethyl-propyl)-2-thiophen-2-ylmethyl-1H-benzoimidazole-5-carbonyl]-amino}-propionic acid], for which the negative logarithm of the EC50 (pEC50) (read-out: EC50 (APJ agonism)) was 5.66.

As for `CCC(CC)n1c(Cc2cccs2)nc2cc(C(=O)N[C@@H](CC(C)C)C(=O)Nc3ccc(OC)cc3)ccc21` [Example 265, 1-(1-Ethyl-propyl)-2-thiophen-2-ylmethyl-1H-benzoimidazole-5-carboxylic acid [(S)-1-(4-methoxy-phenylcarbamoyl)-3-methyl-butyl]-amide], where the note is “read-out: EC50 (APJ agonism)”, the pEC50 was 5.06.

For `CCC(CC)n1c(Cc2cccs2)nc2cc(C(=O)N[C@@H](CC(C)C)[C@@H](O)CC(=O)O)ccc21` [Example 75, (3S,4S)-4-{[1-(1-Ethyl-propyl)-2-thiophen-2-ylmethyl-1H-benzoimidazole-5-carbonyl]-amino}-3-hydroxy-6-methyl-heptanoic acid], for the setting “read-out: EC50 (APJ agonism)”, the pEC50 is 7.18.

Turning to `CCC(CC)n1c(Cc2cccs2)nc2cc(C(=O)N[C@@H](CC(C)C)C(=O)N3CCC(N4CCCCCC4)CC3)ccc21` [Example 335, 1-(1-Ethyl-propyl)-2-thiophen-2-ylmethyl-1H-benzoimidazole-5-carboxylic acid [(S)-1-(4-azepan-1-yl-piperidine-1-carbonyl)-3-methyl-butyl]-amide], for the setting “read-out: EC50 (APJ agonism)”, the negative-log EC50 (pEC50) is 6.42.

For `CCC(CC)C(CC(=O)O)NC(=O)c1ccc2c(c1)nc(Cc1cccs1)n2C(CC)CC` (stereo not shown) [Example 59, 4-Ethyl-3-{[1-(1-ethyl-propyl)-2-thiophen-2-ylmethyl-1H-benzoimidazole-5-carbonyl]-amino}-hexanoic acid], the negative-log EC50 (pEC50) (read-out: EC50 (APJ agonism)) is 6.24.

Turning to `CC(C)C[C@H](NC(=O)c1ccc2c(c1)nc(Cc1ccsc1)n2C1CCCCC1)C(=O)O` [Example 152, (S)-2-[(1-Cyclohexyl-2-thiophen-3-ylmethyl-1H-benzoimidazole-5-carbonyl)-amino]-4-methyl-pentanoic acid], the pEC50 (read-out: EC50 (APJ agonism)) is 5.40.

In the case of `CCC(CC)n1c(Cc2cccs2)nc2cc(C(=O)N[C@@H](CC(C)C)C(=O)NC(C)CC(C)C)ccc21` (stereo partly drawn) [Example 232, 1-(1-Ethyl-propyl)-2-thiophen-2-ylmethyl-1H-benzoimidazole-5-carboxylic acid [(S)-1-(1,3-dimethyl-butylcarbamoyl)-3-methyl-butyl]-amide], the pEC50 (read-out: EC50 (APJ agonism)) was 5.53.

With `CCC(CC)n1c(Cc2cccs2)nc2cc(C(=O)N[C@@H](CC(C)C)C(=O)NCCCN3CCCC3)ccc21` [Example 241, 1-(1-Ethyl-propyl)-2-thiophen-2-ylmethyl-1H-benzoimidazole-5-carboxylic acid [(S)-3-methyl-1-(3-pyrrolidin-1-yl-propylcarbamoyl)-butyl]-amide], the pEC50 (read-out: EC50 (APJ agonism)) was 6.59.

For the compound `CCC(CC)n1c(Cc2cccs2)nc2cc(C(=O)N[C@@H](CC(C)C)C(=O)N(C)Cc3ccc(OC)cc3)ccc21` [Example 372, 1-(1-Ethyl-propyl)-2-thiophen-2-ylmethyl-1H-benzoimidazole-5-carboxylic acid {(S)-1-[(4-methoxy-benzyl)-methyl-carbamoyl]-3-methyl-butyl}-amide], the pEC50 (read-out: EC50 (APJ agonism)) is 4.88.

With `CCC(CC)n1c(Cc2cccs2)nc2cc(C(=O)N[C@@H](CC(C)C)C(=O)NCc3cccc(N(C)C)c3)ccc21` [Example 252, 1-(1-Ethyl-propyl)-2-thiophen-2-ylmethyl-1H-benzoimidazole-5-carboxylic acid [(S)-1-(3-dimethylamino-benzylcarbamoyl)-3-methyl-butyl]-amide], the pEC50 (read-out: EC50 (APJ agonism)) was 5.16.

For the compound `CC(C)C[C@H](NC(=O)c1ccc2c(c1)nc(Cc1cccs1)n2C1CCCCC1C)C(=O)O` (single isomer, unassigned) [Example 415], for the setting “read-out: EC50 (APJ agonism)”, the pEC50 is 6.27.
